Laboratory results as given in PubChem BioAssay AID1963847 (Molecular Pharmacology Branch, DTP, NCI, 2024).

System: 415267-285-R-J2-PDC complex spheroid viability
Test: Anticancer human tumor 415267-285-R-J2-PDC patient-derived breast carcinoma cell line growth inhibition [POLQ]
Settings: for IC50: curve of first compound; for viability, T/C: stronger effect = lower value; active means viability on the fitted dose curve at most 10% of control; inactive means the rest
In short: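 Patient-derived tumour cells were co-cultured with HUVEC and mesenchymal stem cells as multicellular spheroids at 37 °C. They were treated with POLQ inhibitors (novobiocin, ART-558, RP6685) alone or combined with other agents. Top concentrations were at or near clinical Cmax (otherwise 10 microM; SN-38 at 1 microM), decreasing in half-log steps.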

[1] = second compound 0.0316 µM, first compound 0.00316 µM
[2] = second compound 0.0316 µM, first compound 0.01 µM
[3] = second compound 0.0316 µM, first compound 0.0316 µM
[4] = second compound 0.0316 µM, first compound 0.1 µM
[5] = second compound 0.0316 µM, first compound 0.316 µM
[6] = second compound 0.0316 µM, first compound 1 µM
[7] = second compound 0.1 µM, first compound 0.00316 µM
[8] = second compound 0.1 µM, first compound 0.01 µM
[9] = second compound 0.1 µM, first compound 0.0316 µM
[10] = second compound 0.1 µM, first compound 0.1 µM
[11] = second compound 0.1 µM, first compound 0.316 µM
[12] = second compound 0.1 µM, first compound 1 µM
[13] = second compound 0.316 µM, first compound 0.00316 µM
[14] = second compound 0.316 µM, first compound 0.01 µM
[15] = second compound 0.316 µM, first compound 0.0316 µM
[16] = second compound 0.316 µM, first compound 0.1 µM
[17] = second compound 0.316 µM, first compound 0.316 µM
[18] = second compound 0.316 µM, first compound 1 µM
[19] = second compound 1 µM, first compound 0.00316 µM
[20] = second compound 1 µM, first compound 0.01 µM
[21] = second compound 1 µM, first compound 0.0316 µM
[22] = second compound 1 µM, first compound 0.1 µM
[23] = second compound 1 µM, first compound 0.316 µM
[24] = second compound 1 µM, first compound 1 µM
[25] = second compound 3.16 µM, first compound 0.00316 µM
[26] = second compound 3.16 µM, first compound 0.01 µM
[27] = second compound 3.16 µM, first compound 0.0316 µM
[28] = second compound 3.16 µM, first compound 0.1 µM
[29] = second compound 3.16 µM, first compound 0.316 µM
[30] = second compound 3.16 µM, first compound 1 µM
[31] = second compound 10 µM, first compound 0.00316 µM
[32] = second compound 10 µM, first compound 0.01 µM
[33] = second compound 10 µM, first compound 0.0316 µM
[34] = second compound 10 µM, first compound 0.1 µM
[35] = second compound 10 µM, first compound 0.316 µM
[36] = second compound 10 µM, first compound 1 µM
[37] = second compound 0.0316 µM, first compound 3.16 µM
[38] = second compound 0.0316 µM, first compound 10 µM
[39] = second compound 0.1 µM, first compound 3.16 µM
[40] = second compound 0.1 µM, first compound 10 µM
[41] = second compound 0.316 µM, first compound 3.16 µM
[42] = second compound 0.316 µM, first compound 10 µM
[43] = second compound 1 µM, first compound 3.16 µM
[44] = second compound 1 µM, first compound 10 µM
[45] = second compound 3.16 µM, first compound 3.16 µM
[46] = second compound 3.16 µM, first compound 10 µM
[47] = second compound 10 µM, first compound 3.16 µM
[48] = second compound 10 µM, first compound 10 µM
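Further: spheroids exposed to compounds for one week before readout.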
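Wherever viability, T/C is given: luminescence used as stand-in measure of viable cells; 100% = DMSO vehicle control viability.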

C=CCn1c(=O)c2cnc(Nc3ccc(N4CCN(C)CC4)cc3)nc2n1-c1cccc(C(C)(C)O)n1 + COC1C(OC(N)=O)C(O)C(Oc2ccc3c(O)c(NC(=O)c4ccc(O)c(CC=C(C)C)c4)c(=O)oc3c2C)OC1(C)C
267 nM: IC50 (second compound 10 µM)
269 nM: IC50 (second compound 0.1 µM) | IC50 (second compound 1 µM)
active: viability, T/C [6] 7.91% | viability, T/C [12] 7.89% | viability, T/C [18] 7.25% | viability, T/C [24] 7.39% | viability, T/C [30] 8.1% | viability, T/C [36] 9.2%
249 nM: IC50 (second compound 3.16 µM)
inactive: viability, T/C [1] 106% | viability, T/C [2] 96.1% | viability, T/C [3] 105% | viability, T/C [4] 101% | viability, T/C [5] 53.7% | viability, T/C [7] 96% | viability, T/C [8] 95.3% | viability, T/C [9] 101% | viability, T/C [10] 99.1% | viability, T/C [11] 42.1% | viability, T/C [13] 114% | viability, T/C [14] 110% | viability, T/C [15] 100% | viability, T/C [16] 116% | viability, T/C [17] 38.1% | viability, T/C [19] 105% | viability, T/C [20] 119% | viability, T/C [21] 95.8% | viability, T/C [22] 89.9% | viability, T/C [23] 42.9% | viability, T/C [25] 111% | viability, T/C [26] 101% | viability, T/C [27] 103% | viability, T/C [28] 95.9% | viability, T/C [29] 38.1% | viability, T/C [31] 112% | viability, T/C [32] 93.9% | viability, T/C [33] 106% | viability, T/C [34] 97.9% | viability, T/C [35] 41.7%
347 nM: IC50 (second compound 0.0316 µM)
262 nM: IC50 (second compound 0.316 µM)

CCc1c2c(nc3ccc(O)cc13)-c1cc3c(c(=O)n1C2)COC(=O)[C@]3(O)CC + COC1C(OC(N)=O)C(O)C(Oc2ccc3c(O)c(NC(=O)c4ccc(O)c(CC=C(C)C)c4)c(=O)oc3c2C)OC1(C)C
active: viability, T/C [3] 6.54% | viability, T/C [4] 4.82% | viability, T/C [5] 3.41% | viability, T/C [6] 1.27% | viability, T/C [9] 7.02% | viability, T/C [10] 5.02% | viability, T/C [11] 3.21% | viability, T/C [12] 1.32% | viability, T/C [15] 9.37% | viability, T/C [16] 4.84% | viability, T/C [17] 5.41% | viability, T/C [18] 1.19% | viability, T/C [21] 7.66% | viability, T/C [22] 4.1% | viability, T/C [23] 4.05% | viability, T/C [24] 1.96% | viability, T/C [27] 6.74% | viability, T/C [28] 4.81% | viability, T/C [29] 3.35% | viability, T/C [30] 1.51% | viability, T/C [33] 7.22% | viability, T/C [34] 4.24% | viability, T/C [35] 3.48% | viability, T/C [36] 1.63%
< 3.16 nM: IC50 (second compound 0.0316 µM) | IC50 (second compound 0.1 µM) | IC50 (second compound 0.316 µM) | IC50 (second compound 1 µM) | IC50 (second compound 3.16 µM) | IC50 (second compound 10 µM)
inactive: viability, T/C [1] 32.7% | viability, T/C [2] 10% | viability, T/C [7] 38.3% | viability, T/C [8] 11% | viability, T/C [13] 36.5% | viability, T/C [14] 11% | viability, T/C [19] 43.8% | viability, T/C [20] 9.67% | viability, T/C [25] 39.8% | viability, T/C [26] 9.67% | viability, T/C [31] 40.3% | viability, T/C [32] 10.1%

Nc1ccn(C2OC(CO)C(O)C2(F)F)c(=O)n1 (stereo not drawn) + COC1C(OC(N)=O)C(O)C(Oc2ccc3c(O)c(NC(=O)c4ccc(O)c(CC=C(C)C)c4)c(=O)oc3c2C)OC1(C)C
inactive: viability, T/C [21] 31.1% | viability, T/C [33] 24.7%
active: viability, T/C [3] 6.95% | viability, T/C [4] 7.41% | viability, T/C [5] 5.11% | viability, T/C [6] 5.97% | viability, T/C [37] 5.96% | viability, T/C [38] 7.99% | viability, T/C [9] 7.63% | viability, T/C [10] 6.2% | viability, T/C [11] 4.86% | viability, T/C [12] 5.57% | viability, T/C [39] 5.43% | viability, T/C [40] 5.04% | viability, T/C [15] 6.64% | viability, T/C [16] 8.84% | viability, T/C [17] 5.17% | viability, T/C [18] 4.85% | viability, T/C [41] 6.19% | viability, T/C [42] 4.45% | viability, T/C [22] 5.76% | viability, T/C [23] 5.6% | viability, T/C [24] 5.77% | viability, T/C [43] 5.83% | viability, T/C [44] 5.65% | viability, T/C [27] 7.56% | viability, T/C [28] 6.05% | viability, T/C [29] 5.39% | viability, T/C [30] 6.49% | viability, T/C [45] 5.4% | viability, T/C [46] 5.83% | viability, T/C [34] 5.53% | viability, T/C [35] 6.82% | viability, T/C [36] 6.71% | viability, T/C [47] 7.68% | viability, T/C [48] 5.33%
< 31.6 nM: IC50 (second compound 0.0316 µM) | IC50 (second compound 0.1 µM) | IC50 (second compound 0.316 µM) | IC50 (second compound 1 µM) | IC50 (second compound 3.16 µM) | IC50 (second compound 10 µM)

O=C(c1cc(Cc2n[nH]c(=O)c3ccccc23)ccc1F)N1CCN(C(=O)C2CC2)CC1 + COC1C(OC(N)=O)C(O)C(Oc2ccc3c(O)c(NC(=O)c4ccc(O)c(CC=C(C)C)c4)c(=O)oc3c2C)OC1(C)C
inactive: viability, T/C [3] 88% | viability, T/C [4] 92.7% | viability, T/C [5] 89.4% | viability, T/C [6] 94.3% | viability, T/C [37] 96.5% | viability, T/C [38] 81.8% | viability, T/C [9] 95.5% | viability, T/C [10] 94% | viability, T/C [11] 87% | viability, T/C [12] 92% | viability, T/C [39] 94.6% | viability, T/C [40] 79.6% | viability, T/C [15] 93.5% | viability, T/C [16] 102% | viability, T/C [17] 98.2% | viability, T/C [18] 96.6% | viability, T/C [41] 90.4% | viability, T/C [42] 95.1% | viability, T/C [21] 98.5% | viability, T/C [22] 101% | viability, T/C [23] 96.8% | viability, T/C [24] 90.9% | viability, T/C [43] 96% | viability, T/C [44] 77.9% | viability, T/C [27] 97.2% | viability, T/C [28] 91.9% | viability, T/C [29] 90.8% | viability, T/C [30] 94.8% | viability, T/C [45] 98.3% | viability, T/C [46] 81.4% | viability, T/C [33] 97.6% | viability, T/C [34] 105% | viability, T/C [35] 92% | viability, T/C [36] 93.2% | viability, T/C [47] 89.2% | viability, T/C [48] 79.7%
> 10000 nM: IC50 (second compound 0.0316 µM) | IC50 (second compound 0.1 µM) | IC50 (second compound 0.316 µM) | IC50 (second compound 1 µM) | IC50 (second compound 3.16 µM) | IC50 (second compound 10 µM)
